Data published in ChEMBL document CHEMBL3885881, “DrugMatrix”.

Species on record: Rattus norvegicus
Test: DrugMatrix - Regimen: Daily Repeat
Assay type: toxicity, organism-based, Sprague-Dawley
Parameters: regimen Daily Repeat, gender Male, age 6-8 weeks
Settings: in vivo, po, route oral GAVAGE, vehicle 100 % WATER; for ABSOLUTE BASOPHIL / ABSOLUTE EOSINOPHIL / ABSOLUTE LYMPHOCYTE / ABSOLUTE MONOCYTE / ABSOLUTE SEGMENTED NEUTROPHIL / BASOPHIL / EOSINOPHIL / ERYTHROCYTE COUNT / HEMATOCRIT / HEMOGLOBIN / LEUKOCYTE COUNT / LYMPHOCYTE / MEAN CORPUSCULAR HEMOGLOBIN / MEAN CORPUSCULAR HEMOGLOBIN CONCENTRATION / MEAN CORPUSCULAR VOLUME / MONOCYTE / NEUTROPHIL / NUCLEATED RED BLOOD CELLS / PLATELET COUNT: tissue Blood; for ALANINE AMINOTRANSFERASE / ALBUMIN / ALKALINE PHOSPHATASE / ASPARTATE AMINOTRANSFERASE / BLOOD UREA NITROGEN / CARBON DIOXIDE / CHLORIDE / CHOLESTEROL / CREATINE PHOSPHOKINASE / CREATININE / GLUCOSE / LACTATE DEHYDROGENASE / LIPASE / PHOSPHORUS / POTASSIUM / SODIUM / TOTAL BILIRUBIN / TOTAL PROTEIN / URIC ACID: tissue Plasma
[1] = 17 mg/kg, 72 h, dose level High, time 3 day
[2] = 17 mg/kg, 120 h, dose level High, time 5 day
[3] = […], 72 h, dose 1.7 mg/Kg, dose level Low, time 3 day
[4] = […], 120 h, dose 1.7 mg/Kg, dose level Low, time 5 day

## COP(=O)(OC)OC=C(Cl)Cl [DICHLORVOS]
[1]
  ABSOLUTE BASOPHIL: 0 CELLS/uL
  ABSOLUTE EOSINOPHIL: 43.33 CELLS/uL
  ABSOLUTE LYMPHOCYTE: 12252 CELLS/uL
  ABSOLUTE MONOCYTE: 527.33 CELLS/uL
  ABSOLUTE SEGMENTED NEUTROPHIL: 1577.33 CELLS/uL
  BASOPHIL: 0%
  EOSINOPHIL: 0.33%
  ERYTHROCYTE COUNT: 5.59 x10E6/uL
  HEMATOCRIT: 34.9%
  HEMOGLOBIN: 13.5 G/DL
  LEUKOCYTE COUNT: 14.4 x10E3/uL
  LYMPHOCYTE: 85%
  MEAN CORPUSCULAR HEMOGLOBIN: 24.17 pg
  MEAN CORPUSCULAR HEMOGLOBIN CONCENTRATION: 38.7 G/DL
  MEAN CORPUSCULAR VOLUME: 62.53 fL
  MONOCYTE: 3.67%
  NEUTROPHIL: 11%
  NUCLEATED RED BLOOD CELLS: 0 /100WBC
  PLATELET COUNT: 1225.67 x10E3/uL
  ALANINE AMINOTRANSFERASE: 49.67 u/L
  ALBUMIN: 4 G/DL
  ALKALINE PHOSPHATASE: 370.33 u/L
  ASPARTATE AMINOTRANSFERASE: 92 u/L
  BLOOD UREA NITROGEN: 17.67 mg/dL
  CARBON DIOXIDE: 27 mmol/L
  CHLORIDE: 104.33 MEQ/L
  CHOLESTEROL: 63.67 mg/dL
  CREATINE PHOSPHOKINASE: 448 u/L
  CREATININE: 0.2 mg/dL
  GLUCOSE: 141 mg/dL
  LACTATE DEHYDROGENASE: 444.33 u/L
  LIPASE: 8.33 u/L
  PHOSPHORUS: 12.67 mg/dL
  POTASSIUM: 6.46 MEQ/L
  SODIUM: 145.9 MEQ/L
  TOTAL BILIRUBIN: 0.2 mg/dL
  TOTAL PROTEIN: 5.77 G/DL
  URIC ACID: 1.23 mg/dL
[2]
  ABSOLUTE BASOPHIL: 0 CELLS/uL
  ABSOLUTE EOSINOPHIL: 213.33 CELLS/uL
  ABSOLUTE LYMPHOCYTE: 13980 CELLS/uL
  ABSOLUTE MONOCYTE: 329.33 CELLS/uL
  ABSOLUTE SEGMENTED NEUTROPHIL: 1944 CELLS/uL
  BASOPHIL: 0%
  EOSINOPHIL: 1.33%
  ERYTHROCYTE COUNT: 5.69 x10E6/uL
  HEMATOCRIT: 34.17%
  HEMOGLOBIN: 13.03 G/DL
  LEUKOCYTE COUNT: 16.47 x10E3/uL
  LYMPHOCYTE: 85%
  MEAN CORPUSCULAR HEMOGLOBIN: 22.9 pg
  MEAN CORPUSCULAR HEMOGLOBIN CONCENTRATION: 38.13 G/DL
  MEAN CORPUSCULAR VOLUME: 60.07 fL
  MONOCYTE: 2%
  NEUTROPHIL: 11.67%
  NUCLEATED RED BLOOD CELLS: 0 /100WBC
  PLATELET COUNT: 1272.67 x10E3/uL
  ALANINE AMINOTRANSFERASE: 46 u/L
  ALBUMIN: 4.23 G/DL
  ALKALINE PHOSPHATASE: 289.33 u/L
  ASPARTATE AMINOTRANSFERASE: 91 u/L
  BLOOD UREA NITROGEN: 19.33 mg/dL
  CARBON DIOXIDE: 24.67 mmol/L
  CHLORIDE: 105.33 MEQ/L
  CHOLESTEROL: 60.33 mg/dL
  CREATINE PHOSPHOKINASE: 609.33 u/L
  CREATININE: 0.22 mg/dL
  GLUCOSE: 167.33 mg/dL
  LACTATE DEHYDROGENASE: 458 u/L
  LIPASE: 8.33 u/L
  PHOSPHORUS: 12.8 mg/dL
  POTASSIUM: 5.47 MEQ/L
  SODIUM: 146.93 MEQ/L
  TOTAL BILIRUBIN: 0.13 mg/dL
  TOTAL PROTEIN: 5.8 G/DL
  URIC ACID: 1.37 mg/dL
[3]
  ABSOLUTE BASOPHIL: 0 CELLS/uL
  ABSOLUTE EOSINOPHIL: 0 CELLS/uL
  ABSOLUTE LYMPHOCYTE: 12487 CELLS/uL
  ABSOLUTE MONOCYTE: 388 CELLS/uL
  ABSOLUTE SEGMENTED NEUTROPHIL: 1291.67 CELLS/uL
  BASOPHIL: 0%
  EOSINOPHIL: 0%
  ERYTHROCYTE COUNT: 6.29 x10E6/uL
  HEMATOCRIT: 38.27%
  HEMOGLOBIN: 14.27 G/DL
  LEUKOCYTE COUNT: 14.17 x10E3/uL
  LYMPHOCYTE: 88.33%
  MEAN CORPUSCULAR HEMOGLOBIN: 22.67 pg
  MEAN CORPUSCULAR HEMOGLOBIN CONCENTRATION: 37.3 G/DL
  MEAN CORPUSCULAR VOLUME: 60.77 fL
  MONOCYTE: 2.67%
  NEUTROPHIL: 9%
  NUCLEATED RED BLOOD CELLS: 0 /100WBC
  PLATELET COUNT: 1299 x10E3/uL
  ALANINE AMINOTRANSFERASE: 50 u/L
  ALBUMIN: 4.4 G/DL
  ALKALINE PHOSPHATASE: 363 u/L
  ASPARTATE AMINOTRANSFERASE: 81.33 u/L
  BLOOD UREA NITROGEN: 14.67 mg/dL
  CARBON DIOXIDE: 23 mmol/L
  CHLORIDE: 104 MEQ/L
  CHOLESTEROL: 85.67 mg/dL
  CREATINE PHOSPHOKINASE: 178 u/L
  CREATININE: 0.19 mg/dL
  GLUCOSE: 178.67 mg/dL
  LACTATE DEHYDROGENASE: 95.67 u/L
  LIPASE: 9.33 u/L
  PHOSPHORUS: 13.57 mg/dL
  POTASSIUM: 6.76 MEQ/L
  SODIUM: 146.43 MEQ/L
  TOTAL BILIRUBIN: 0.23 mg/dL
  TOTAL PROTEIN: 6.37 G/DL
  URIC ACID: 3.2 mg/dL
[4]
  ABSOLUTE BASOPHIL: 0 CELLS/uL
  ABSOLUTE EOSINOPHIL: 131 CELLS/uL
  ABSOLUTE LYMPHOCYTE: 11771.67 CELLS/uL
  ABSOLUTE MONOCYTE: 175 CELLS/uL
  ABSOLUTE SEGMENTED NEUTROPHIL: 1055.67 CELLS/uL
  BASOPHIL: 0%
  EOSINOPHIL: 1%
  ERYTHROCYTE COUNT: 5.65 x10E6/uL
  HEMATOCRIT: 34.67%
  HEMOGLOBIN: 13 G/DL
  LEUKOCYTE COUNT: 13.13 x10E3/uL
  LYMPHOCYTE: 89.67%
  MEAN CORPUSCULAR HEMOGLOBIN: 22.97 pg
  MEAN CORPUSCULAR HEMOGLOBIN CONCENTRATION: 37.5 G/DL
  MEAN CORPUSCULAR VOLUME: 61.37 fL
  MONOCYTE: 1.33%
  NEUTROPHIL: 8%
  NUCLEATED RED BLOOD CELLS: 0 /100WBC
  PLATELET COUNT: 1220 x10E3/uL
  ALANINE AMINOTRANSFERASE: 47.67 u/L
  ALBUMIN: 4.2 G/DL
  ALKALINE PHOSPHATASE: 278 u/L
  ASPARTATE AMINOTRANSFERASE: 83.67 u/L
  BLOOD UREA NITROGEN: 18.33 mg/dL
  CARBON DIOXIDE: 25.67 mmol/L
  CHLORIDE: 106.67 MEQ/L
  CHOLESTEROL: 68.33 mg/dL
  CREATINE PHOSPHOKINASE: 322.33 u/L
  CREATININE: 0.19 mg/dL
  GLUCOSE: 144.33 mg/dL
  LACTATE DEHYDROGENASE: 436.33 u/L
  LIPASE: 8.67 u/L
  PHOSPHORUS: 11.6 mg/dL
  POTASSIUM: 6.06 MEQ/L
  SODIUM: 146.23 MEQ/L
  TOTAL BILIRUBIN: 0.2 mg/dL
  TOTAL PROTEIN: 5.9 G/DL
  URIC ACID: 1.03 mg/dL
